Tests used:
RyR1 [1] = target: T1, RyR1 (Sus scrofa, UniProt P16960); experiment: F-FKBP binding to RyR1 by co-sedimentation with skeletal SR membranes; design: using co-sedimentation with pig skeletal and cardiac SR membranes; from tissue; host or cells: pig skeletal muscle (heavy SR membranes); species or system pig; settings: RyR1, 10 μM Hit, 30 nM Ca2+, 5 mM GSSG or GSH
Experimental: (§1) The Hit-induced effect on FRET between D-FKBP and A-CaM most likely results from one or the combination of factors, including a shift in CaM and/or FKBP12.6 binding, and/or structure of the RyR complex that shifts the D-A distance. Under the same assay conditions as in the primary screen, we assessed the effect of 10 μM Hit on fluorescent FKBP12.6 (F-FKBP) binding to RyRs, using co-sedimentation with pig skeletal and cardiac SR membranes.
(§2) Supplementary Fig. 3 Effect of HTS Hits on F-FKBP binding to a) RyR1 in skeletal HSR membranes, and b) RyR2
(§3) in cardiac CSR membranes at 30 nM Ca2+ in the presence of 5 mM GSSG or GSH. Results are represented as individual
(§4) data points and means ± SEM, n = 4-5. *P < 0.05 by 2-sided Student’s unpaired t-test. […]

RyR2 [2] = target: T2, RyR2 (Sus scrofa, UniProt A0A5G2R1W3); experiment: F-FKBP binding to RyR2 by co-sedimentation with cardiac SR membranes; design: using co-sedimentation with pig skeletal and cardiac SR membranes; from tissue; host or cells: pig cardiac muscle (crude SR membranes); species or system pig; settings: RyR2, 10 μM Hit, 30 nM Ca2+, 5 mM GSSG or GSH
Experimental: as §1, §2, §3, §4

RyR1 [3] = target: T1, RyR1; experiment: FLT-FRET between D-FKBP and A-CaM bound to RyR1 in skeletal SR membranes (HTS and dose-response); format: binding, porcine; design: RyR1 in skeletal SR membranes, and RyR2 in cardiac SR membranes; from tissue; host or cells: porcine longissimus dorsi muscle (heavy SR vesicles); settings: 30 nM Ca2+
Experimental: To confer compatibility with current HTS standards in industrial drug discovery facilities, we miniaturized our screening format from the previously established 384-well plates, requiring 50 μL sample per well[19], to 1536-well plates, requiring 5 μL sample per well. The complete 1280-compound library of pharmacologically active compounds (LOPAC) was applied as 5 nL/well in 40 columns of one 1536-well black-wall/black-bottom plate, with the remaining 8 columns loaded with 5 nL/well of DMSO, as no-drug controls. For each run of the screen, three plates were loaded with either (1) unlabeled HSR, or (2) HSR pre-incubated with donor-FKBP (D-FKBP; donor-only sample), or (3) donor-only sample that was additionally incubated with 0.3 μM acceptor-CaM (A-CaM) for 60 min prior to loading on the plate (donor-acceptor sample). This sub-saturating concentration of A-CaM was used to provide a readout that is sensitive to library compounds that may increase or decrease CaM binding affinity to RyR. To promote a homogenous population of RyR1 resembling that associated with myopathies, final assay conditions also included 30 nM Ca^2+ to represent resting (muscle relaxing) Ca^2+, and 5 mM oxidized glutathione (GSSG), which exaggerates the conditions associated with oxidative stress.
We acquired both FLT waveforms and fluorescence spectra, as previously described[19],[33],[34]. As previously observed, Hit effects were greatest following a 2-hour incubation with the library compounds (Supplementary Fig. 1a). As a result, all FRET results shown in Figs. 1 and 2, and Supplementary Fig. 2 are reported from the 2-hour incubation.
(§5) Necessary counter-screens to our pathological RyR1 conditions include evaluating compound effects in healthy conditions and on the cardiac isoform, RyR2. Using the same FRET assay as in HTS, we tested the dose response of key Hits from this screen and the previously HTS-identified RyR1 inhibitor, chloroxine, on healthy (5 mM GSH) and pathological (5 mM GSSG) conditions for both RyR1 in skeletal SR membranes, and RyR2 in cardiac SR membranes.
(§6) Skeletal HSR and cardiac CSR (0.4 mg/ml) membranes were independently pre-incubated with 60 nM D-FKBP, for 90 min, at 37 °C, in a solution containing 150 mM KCl, 5 mM GSH, 0.1 mg/mL BSA, 1 µg/mL Aprotinin/Leupeptin, 1 mM DTT and 20 mM PIPES (pH 7.0). To remove unbound D-FKBP, the SR membranes were spun down at 110,000 × g for 20 min, and then resuspended to 1 mg/mL (skeletal HSR) and 2 mg/mL (cardiac CSR) in binding buffer consisting of 150 mM KCl, 5 mM GSSG, 0.1 mg/mL BSA, 1μg/mL Aprotinin/Leupeptin and 20 mM PIPES, pH 7.0. These samples were then incubated with indicated [A-CaM] for 30 min at 22 °C in binding buffer containing 0.065 mM CaCl2 to give 30 nM free Ca^2+ in the presence of 1 mM EGTA (calculated by MaxChelator). This labeled SR sample was applied to the assay plates in 5 μL aliquots using a Multidrop™ Combi reagent dispenser (Thermo Scientific) with a standard-tube. An additional set of the assay plates were loaded with skeletal HSR or cardiac CSR labeled with only D-FKBP (no added A-CaM).
(§7) FLT measurements were conducted in a top-read FLT-PR designed and built by Fluorescence Innovations, Inc[33]. AF488 donor fluorescence was excited with a 473-nm microchip laser from Concepts Research Corporation (Belgium, WI), and emission was acquired with 490-nm long-pass and 517/20-nm band-pass filters (Semrock, Rochester, NY).
FLT waveforms for each well were fit based on a one-exponential decay function using least-squares minimization global-analysis software (Fluorescence Innovations, Inc.), as previously described[19],[33]. FRET efficiency (E) was determined as the fractional decrease of donor FLT (τD), due to the presence of acceptor fluorophore (τDA), using the following equation:1 E=1−τDA/τD, […]

RyR2 [4] = target: T2, RyR2; experiment: FLT-FRET between D-FKBP and A-CaM bound to RyR2 in cardiac SR membranes (dose-response); format: binding, porcine; design: RyR1 in skeletal SR membranes, and RyR2 in cardiac SR membranes; from tissue; host or cells: porcine cardiac left ventricle (crude SR vesicles); settings: RyR2, dose-response, 30 nM Ca2+
Experimental: as §5, §6, §7
FLT waveforms for each well were fit based on a one-exponential decay function using least-squares minimization global-analysis software (Fluorescence Innovations, Inc.), as previously described[19],[33]. FRET efficiency (E) was determined as the fractional decrease of donor FLT (τD), due to the presence of acceptor fluorophore (τDA), using the following equation:1 E=1−τDA/τD,

[5] = target: ryanodine receptor, cardiac isoform (RyR2), in porcine cardiac SR membranes (pig (endogenous in porcine cardiac left ventricle)); experiment: FRET or BRET; same FLT-FRET read-out with temsirolimus (dose response); skeletal and cardiac SR membranes, 30 nM Ca2+, 5 mM GSSG or GSH
[6] = target: ryanodine receptor, skeletal muscle isoform (RyR1), in porcine skeletal heavy SR membranes (pig (endogenous in porcine longissimus dorsi muscle)) (UniProt P16960); experiment: as above
[7] = target: ryanodine receptor, cardiac isoform (RyR2), in porcine cardiac SR membranes (pig (endogenous in porcine cardiac left ventricle)); experiment: co-sedimentation; fluorescent FKBP12.6 co-sedimented with pig skeletal and cardiac SR membranes, same conditions as the primary screen; with 10 μM temsirolimus or tacrolimus
[8] = target: ryanodine receptor, skeletal muscle isoform (RyR1), in porcine skeletal heavy SR membranes (pig (endogenous in porcine longissimus dorsi muscle)) (UniProt P16960); experiment: as above

T1 sequence (P16960 whole entry): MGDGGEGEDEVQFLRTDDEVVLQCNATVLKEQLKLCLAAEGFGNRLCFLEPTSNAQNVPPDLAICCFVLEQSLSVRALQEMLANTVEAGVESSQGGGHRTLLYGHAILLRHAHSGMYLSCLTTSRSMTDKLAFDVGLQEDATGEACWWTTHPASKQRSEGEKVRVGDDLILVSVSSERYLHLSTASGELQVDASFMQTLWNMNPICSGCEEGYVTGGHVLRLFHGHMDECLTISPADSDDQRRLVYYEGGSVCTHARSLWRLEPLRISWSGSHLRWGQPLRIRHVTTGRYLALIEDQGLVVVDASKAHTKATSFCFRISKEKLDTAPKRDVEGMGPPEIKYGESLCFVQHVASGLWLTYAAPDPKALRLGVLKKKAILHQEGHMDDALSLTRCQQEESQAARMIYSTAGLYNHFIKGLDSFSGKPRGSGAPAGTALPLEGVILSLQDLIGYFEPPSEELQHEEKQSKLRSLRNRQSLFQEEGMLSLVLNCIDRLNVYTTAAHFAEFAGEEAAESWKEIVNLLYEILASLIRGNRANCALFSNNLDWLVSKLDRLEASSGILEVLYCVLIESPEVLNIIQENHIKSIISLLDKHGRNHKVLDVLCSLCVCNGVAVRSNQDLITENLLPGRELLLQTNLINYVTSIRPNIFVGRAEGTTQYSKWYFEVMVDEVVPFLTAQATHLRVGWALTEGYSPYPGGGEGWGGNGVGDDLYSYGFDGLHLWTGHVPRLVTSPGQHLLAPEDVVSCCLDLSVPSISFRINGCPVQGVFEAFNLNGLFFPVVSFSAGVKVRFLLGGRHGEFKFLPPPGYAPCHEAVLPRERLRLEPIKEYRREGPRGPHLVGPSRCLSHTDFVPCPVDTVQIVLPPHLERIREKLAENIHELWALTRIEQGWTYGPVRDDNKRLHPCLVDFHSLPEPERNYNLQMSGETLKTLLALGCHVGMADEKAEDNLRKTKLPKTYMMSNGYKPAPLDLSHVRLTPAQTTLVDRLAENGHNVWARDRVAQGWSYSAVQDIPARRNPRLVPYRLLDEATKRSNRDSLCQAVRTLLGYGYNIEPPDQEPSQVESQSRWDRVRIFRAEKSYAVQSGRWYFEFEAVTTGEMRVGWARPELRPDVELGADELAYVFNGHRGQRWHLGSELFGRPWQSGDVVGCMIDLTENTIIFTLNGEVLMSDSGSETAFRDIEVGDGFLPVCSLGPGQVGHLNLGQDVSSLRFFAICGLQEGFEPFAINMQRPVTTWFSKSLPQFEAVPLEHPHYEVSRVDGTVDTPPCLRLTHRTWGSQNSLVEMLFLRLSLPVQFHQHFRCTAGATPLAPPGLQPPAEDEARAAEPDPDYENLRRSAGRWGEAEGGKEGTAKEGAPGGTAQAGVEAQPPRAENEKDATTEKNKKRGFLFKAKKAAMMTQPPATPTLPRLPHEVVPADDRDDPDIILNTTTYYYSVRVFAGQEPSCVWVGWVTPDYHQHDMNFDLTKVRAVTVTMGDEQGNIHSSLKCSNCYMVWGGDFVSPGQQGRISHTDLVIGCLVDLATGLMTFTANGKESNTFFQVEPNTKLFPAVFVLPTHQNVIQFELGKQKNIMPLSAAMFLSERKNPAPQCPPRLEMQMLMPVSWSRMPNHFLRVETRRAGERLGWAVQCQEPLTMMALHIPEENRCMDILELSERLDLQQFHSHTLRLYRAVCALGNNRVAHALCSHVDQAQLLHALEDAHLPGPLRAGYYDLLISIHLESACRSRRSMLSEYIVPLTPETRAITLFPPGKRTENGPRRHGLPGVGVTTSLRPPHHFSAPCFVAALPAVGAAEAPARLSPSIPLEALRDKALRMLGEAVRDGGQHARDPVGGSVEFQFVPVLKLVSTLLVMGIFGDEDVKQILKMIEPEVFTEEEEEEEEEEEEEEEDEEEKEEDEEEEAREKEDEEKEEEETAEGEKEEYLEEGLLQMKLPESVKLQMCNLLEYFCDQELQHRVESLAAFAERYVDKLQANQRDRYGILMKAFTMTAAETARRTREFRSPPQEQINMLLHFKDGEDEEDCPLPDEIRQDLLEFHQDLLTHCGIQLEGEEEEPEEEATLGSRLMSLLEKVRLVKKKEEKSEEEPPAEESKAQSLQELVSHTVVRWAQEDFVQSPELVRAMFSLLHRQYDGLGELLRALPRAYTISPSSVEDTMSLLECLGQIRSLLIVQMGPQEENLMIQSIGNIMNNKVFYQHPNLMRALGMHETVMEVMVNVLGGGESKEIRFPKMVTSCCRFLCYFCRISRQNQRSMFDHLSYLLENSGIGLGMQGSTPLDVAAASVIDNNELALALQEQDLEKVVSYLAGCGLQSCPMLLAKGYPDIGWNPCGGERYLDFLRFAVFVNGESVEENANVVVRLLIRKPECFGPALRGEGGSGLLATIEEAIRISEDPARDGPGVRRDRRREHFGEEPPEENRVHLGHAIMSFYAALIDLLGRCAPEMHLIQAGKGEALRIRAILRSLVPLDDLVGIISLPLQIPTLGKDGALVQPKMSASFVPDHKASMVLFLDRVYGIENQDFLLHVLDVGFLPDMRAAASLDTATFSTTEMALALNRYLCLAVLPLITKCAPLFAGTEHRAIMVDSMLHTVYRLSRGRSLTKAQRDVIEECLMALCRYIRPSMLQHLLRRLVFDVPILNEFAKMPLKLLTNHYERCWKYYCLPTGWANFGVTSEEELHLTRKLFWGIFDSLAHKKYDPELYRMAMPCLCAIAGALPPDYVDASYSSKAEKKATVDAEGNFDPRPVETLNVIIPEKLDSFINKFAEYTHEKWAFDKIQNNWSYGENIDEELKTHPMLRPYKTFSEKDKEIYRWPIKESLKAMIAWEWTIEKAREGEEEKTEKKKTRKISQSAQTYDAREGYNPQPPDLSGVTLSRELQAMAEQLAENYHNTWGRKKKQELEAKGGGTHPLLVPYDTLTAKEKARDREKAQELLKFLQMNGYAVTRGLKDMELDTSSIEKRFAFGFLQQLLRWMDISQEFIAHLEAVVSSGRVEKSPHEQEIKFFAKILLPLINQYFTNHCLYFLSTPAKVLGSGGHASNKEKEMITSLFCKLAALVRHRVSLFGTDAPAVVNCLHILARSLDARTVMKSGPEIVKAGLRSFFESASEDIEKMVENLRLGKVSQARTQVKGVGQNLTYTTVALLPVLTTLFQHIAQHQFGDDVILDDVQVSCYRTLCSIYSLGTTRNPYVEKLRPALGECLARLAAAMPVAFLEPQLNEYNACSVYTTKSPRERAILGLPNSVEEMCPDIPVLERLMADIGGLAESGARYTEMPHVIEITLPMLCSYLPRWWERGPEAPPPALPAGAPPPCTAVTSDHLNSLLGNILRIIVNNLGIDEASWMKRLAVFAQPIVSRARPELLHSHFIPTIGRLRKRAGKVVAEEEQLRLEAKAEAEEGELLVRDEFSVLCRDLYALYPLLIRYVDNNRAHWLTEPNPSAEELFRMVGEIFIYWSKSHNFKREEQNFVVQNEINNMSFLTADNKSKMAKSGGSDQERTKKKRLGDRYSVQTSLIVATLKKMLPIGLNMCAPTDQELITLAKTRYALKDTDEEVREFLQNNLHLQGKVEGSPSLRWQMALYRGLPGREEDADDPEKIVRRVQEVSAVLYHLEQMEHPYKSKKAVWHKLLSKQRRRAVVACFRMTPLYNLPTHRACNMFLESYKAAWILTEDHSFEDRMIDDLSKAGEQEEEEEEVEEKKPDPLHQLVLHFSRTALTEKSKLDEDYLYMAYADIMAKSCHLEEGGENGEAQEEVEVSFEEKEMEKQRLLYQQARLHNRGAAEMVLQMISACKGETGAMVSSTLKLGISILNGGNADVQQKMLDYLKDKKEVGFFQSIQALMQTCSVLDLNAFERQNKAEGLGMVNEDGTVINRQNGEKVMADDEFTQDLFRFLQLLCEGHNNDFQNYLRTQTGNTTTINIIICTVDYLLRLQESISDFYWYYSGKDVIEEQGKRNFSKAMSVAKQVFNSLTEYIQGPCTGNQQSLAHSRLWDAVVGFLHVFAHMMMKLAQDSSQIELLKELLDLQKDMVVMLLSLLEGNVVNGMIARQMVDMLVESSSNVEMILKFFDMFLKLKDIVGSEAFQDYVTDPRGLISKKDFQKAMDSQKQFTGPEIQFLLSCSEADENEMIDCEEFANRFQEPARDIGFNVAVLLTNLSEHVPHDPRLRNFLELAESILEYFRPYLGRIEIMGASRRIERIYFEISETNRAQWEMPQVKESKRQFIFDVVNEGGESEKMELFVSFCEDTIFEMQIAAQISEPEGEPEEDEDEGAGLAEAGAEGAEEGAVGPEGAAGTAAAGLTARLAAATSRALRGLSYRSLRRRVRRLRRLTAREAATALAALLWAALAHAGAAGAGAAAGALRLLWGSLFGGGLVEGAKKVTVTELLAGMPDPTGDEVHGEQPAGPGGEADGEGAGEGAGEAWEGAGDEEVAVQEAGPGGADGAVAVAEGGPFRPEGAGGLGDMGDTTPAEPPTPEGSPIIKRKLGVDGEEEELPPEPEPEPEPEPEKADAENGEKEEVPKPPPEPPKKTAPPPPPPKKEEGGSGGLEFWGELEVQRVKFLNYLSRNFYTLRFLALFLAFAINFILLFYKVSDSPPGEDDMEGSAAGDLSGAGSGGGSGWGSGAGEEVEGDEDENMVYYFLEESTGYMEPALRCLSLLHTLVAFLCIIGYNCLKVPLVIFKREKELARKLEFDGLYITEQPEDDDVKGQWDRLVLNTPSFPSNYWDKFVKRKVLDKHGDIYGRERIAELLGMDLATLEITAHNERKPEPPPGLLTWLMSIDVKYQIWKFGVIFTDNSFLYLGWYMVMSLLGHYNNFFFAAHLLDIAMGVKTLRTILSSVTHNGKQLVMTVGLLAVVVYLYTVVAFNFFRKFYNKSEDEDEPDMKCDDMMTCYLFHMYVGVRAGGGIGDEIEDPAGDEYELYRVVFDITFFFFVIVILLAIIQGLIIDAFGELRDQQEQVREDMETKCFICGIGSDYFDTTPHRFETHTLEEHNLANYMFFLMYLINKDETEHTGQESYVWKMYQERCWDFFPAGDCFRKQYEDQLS

Compound | Decrease of F-FKBP binding (RyR1 [1]) | Decrease of F-FKBP binding (RyR2 [2]) | Hit in primary FLT-FRET HTS of LOPAC (FRET altered by > 4 SD vs DMSO) (RyR1 [3]; 10 μM compound, 2-hour incubation, 5 mM GSSG, 0.3 μM A-CaM, 1536-well) | FRET reduction (RyR1 [3]; RyR1, dose-response) | FRET reduction (RyR2 [4]) | FRET reduction by temsirolimus [5] | FRET reduction by temsirolimus [6] | percent decrease of binding with 10 μM temsirolimus or tacrolimus [7] | percent decrease of binding with 10 μM temsirolimus or tacrolimus [8]
CO[C@H]1C[C@@H]2CC[C@@H](C)[C@@](O)(O2)C(=O)C(=O)N2CCCC[C@H]2C(=O)O[C@H]([C@H](C)C[C@@H]2CC[C@@H](OC(=O)C(C)(CO)CO)[C@H](OC)C2)CC(=O)[C@H](C)/C=C(\C)[C@@H](O)[C@@H](OC)C(=O)[C@H](C)C[C@H](C)/C=C/C=C/C=C/1C [temsirolimus] | 20% | 70% | identified | ~ 10% | 68–70% |  |  |  | 
FKBP12.6 single-cysteine mutant (C22A/T85C/C76I) labeled with AF488 (donor-FKBP) (natural protein) |  |  |  |  |  | 68 to 70% | 10% | 70% | 20%

— PMC7000700, “RyR1-targeted drug discovery pipeline integrating FRET-based high-throughput screening and human myofiber dynamic Ca^2+ assays” (Scientific Reports, 2020)
